The values that follow come from patent publication US5912258A, “Thiadiazoleamide derivative and anti-ulcer drug” (Shiseido Co., Ltd., priority 1998, dated 1999).

One series concerns gastric mucosa. The experiment in a line: PD: Gastric Mucosal Integrity Test (gastric mucosal potential difference). The format is in vivo, Male Crj:SD rats. The arrangement: key: 5: Same as the control with no recognizable damage at all.; 4: Though a slight PD-decreasing tendency suggesting a slight possibility of mucosal damage is found, there is no problem.; 3: Though a weak decrease in PD and a possibility of a weak mucosal damage is recognized, there is no substantial problem.; 2: Medium degree of decrease in PD is found and a mucosal damage is recognized.; 1: Heavy degree of decrease in PD is found and a remarkable mucosal damage is recognized. The conditions noted are these: rat, 100 mg/kg into the chamber, 60 minutes. The protocol:
PD: Gastric Mucosal Integrity Test
In this case, since the sample compound has a necrotizing effect, it is inappropriate as an anti-ulcer medicament.
Therefore, the gastric mucosal potential difference (PD), which reflects the integrity of the gastric mucosa, is measured so as to confirm that the sample compound has no damaging effect on gastric mucosa, which is toxicity at gastric mucosal level.
Male Crj:SD rats (7 to 8-week-old) were fasted overnight, but allowed free access to water, and then, under urethane anesthesia (1.25 g/kg, i.p.), fixed to a cork board on its back. The abdomen of each rat was incised, and a small incision was made in the forestomach. Then, the inside of the stomach was washed with physiological saline heated at 37° C. From the forestomach, along the greater curvature thereof, the stomach was incised without damaging blood vessels. After the height of the cork board was adjusted on a jack, the stomach was mounted on ex vivo chamber. The area of the gastric mucosa exposed to the inside of this chamber was 2.5 cm^2. The inside of the chamber was perfused with physiological saline warmed at 37° C. by micro tube pump. By using an agar bridge containing 3M KCl, the potential difference between the chamber and the abdominal cavity was measured by a PD meter. Here, the rectal temperature was measured to control the body temperature during the experiment. After the PD was sufficiently stabilized, the perfusate was stopped and then 100 mg/10 ml/kg of the sample compound dissolved or suspended in an aqueous solution of 0.5% sodium carboxymethylcellulose or 0.05% Tween 80 was administered into the chamber, while PD was recorded for 60 minutes. To a control, the vehicle was administered.
The change in PD during 60 minutes after the administration of 100 mg/kg of the sample compound was collectively studied and, with reference to the positive control, classified into 5 levels as follows:
5: Same as the control with no recognizable damage at all.
3: Though a weak decrease in PD and a possibility of a weak mucosal damage is recognized, there is no substantial problem.
2: Medium degree of decrease in PD is found and a mucosal damage is recognized.
1: Heavy degree of decrease in PD is found and a remarkable mucosal damage is recognized.

Series [1] concerns isolated gastric fundic gland. Nature of the series: CAP: Acid Secretion Inhibition Test in vitro ([^14 C]-aminopyrine uptake). Type of series: cell-based, male Japanese White rabbit. The note with it: Oryctolagus cuniculus, rabbit isolated gastric fundic gland, 10^-5 M, histamine 10^-5 M; read-out: CAP: Acid secretion inhibitory rate. The protocol: CAP: Acid Secretion Inhibition Test in vitro (i) Meaning The acid secretion inhibitory activity in a cell level is studied. It can also be used for studying the mechanism of the effect. (ii) Method (ii)-(a) Preparation of isolated gastric gland suspension First, an isolated gastric fundic gland sample was prepared. Namely, a male Japanese White rabbit (2.5 to 3 kg) was anesthetized to death with Nembutal™ and then the abdomen was incised. Immediately thereafter, the stomach was removed and, after its pyloric and cardiac antrum were severed, incised along its greater curvature into two sheets. The gastric contents adhering to the mucosal surface was washed out with ice-cooled PBS (-) and then carefully washed therein. The gastric wall was spread on a cork board with its mucosal surface facing up and the feed and mucus thereon were completely removed with sterile gauze. The mucosa was separated therefrom by a spatula and then collected in ice-cooled PBS (-). After being washed twice with PBS (-), the mucosa was minced into 2-3 mm^3 pieces by scissors. These pieces were further washed twice with a nutrient solution. The nutrient solution comprises 132.4 mM of NaCl, 5.4 mM of KCl, 5 mM of Na2 HPO4 ·12H2 O, 1 mM of NaH2 PO4 ·2H2 O, 1.2 mM of MgSO4, 1 mM of CaCl2, 25 mM of HEPES, 2 mg/ml of glucose, and 1 mg/ml of BSA. Into 70 ml of the nutrient solution containing 1 mg/ml of collagenase, minced mucosal pieces were dispersed and intensely stirred in a conical flask with a stirrer at 37° C. for 40 to 60 minutes. […] The nutrient solution was added to the reaction solution so as to attain the total amount of about 200 ml. After being filtered through a mesh, the suspension was divisionally introduced into 50 ml centrifuge tubes and left for 15 minutes such that gastric fundic gland was deposited. The supernatant was repeatedly removed by an aspirator, dispersed in the nutrient solution, and then left such that the gastric fundic gland was washed three times. At this time, without using a pipette, the suspension was alternately introduced into two centrifuge tubes so as to effect dispersion. The number of cells was counted under microscope and adjusted to 1.6×10^6 cells/ml. (ii)-(b) [^14 C]-aminopyrine uptake test Then [^14 C]-aminopyrine uptake test was performed. After an Eppendorf tube was weighed, 10 μl (final concentration: 10^-5 M) of histamine dissolved in the above-mentioned nutrient solution, 10 μl (final concentration: 10 ^-5 M) of the test compound dissolved in DMSO, and 10 μl (final concentration: 0.05 μCi/ml) of [^14 C]-aminopyrine diluted with the nutrient solution were introduced therein and then 970 μl of the isolated gastric fundic gland suspension prepared above were added thereto. Subsequently, this mixture was shaken at 37° C. for 40 minutes at 125 cycles/minute. After being centrifuged for 30 minutes 200 μl of its supernatant was collected into a mini-vial, while the rest was removed by an aspirator. The gland pellet was completely dried as the tube with its lid being opened was kept for one night in a drying oven at 80° C. and then the weight was determined at room temperature. Then 100 μl of 1N KOH was added thereto an the tube with its lid being closed was treated at 60° C. for 1 to 2 hours so as to dissolve the pellet. Then, the contents thereof were transferred to a mini-vial. Into the mini-vial containing the supernatant or gland pellet, 4 ml of Atomlite™ was added and then the radioactivity was measured by a liquid scintillation counter. Here, after the radioactivity of the gland pellet was corrected by using a sample in which 20 mM of NaSCN was added so as to cancel the hydrogen ion concentration gradient, the integration ratio of aminopyrine specifically trapped by the gland pellet was calculated. This experiment was performed in duplicate. (ii)-(c) Calculation of the accumulation rate of aminopyrine Here, its principle will be briefly explained. […]

On to `CCSc1nnc(NC(=O)c2ccc(OC/C=C(\C)CCC=C(C)C)cc2)s1` [Example 15, 2-(4-geranyloxybenzoyl)amino-5-ethylthio-1,3,4-thiadiazole], for which, in the series with gastric mucosa, the “PD: change in gastric mucosal potential difference (5 levels)” value is 5. Further, in series [1], the inhibition at 10 µM was found to be 17%.

Take `CC(C)=CCC/C(C)=C/COc1ccc(C(=O)Nc2nnc(SCc3ccccn3)s2)cc1` [Example 14, 2-(4-geranyloxybenzoyl)amino-5-(2-pyridylmethyl)thio-1,3,4-thiadiazole]: the “PD: change in gastric mucosal potential difference (5 levels)” value in the series on gastric mucosa worked out at 5. In series [1], the inhibition at 10 µM came out at 45%.

Take `CCN(CC)CCSc1nnc(NC(=O)c2ccc(OC/C=C(\C)CCC=C(C)C)cc2)s1` [Example 10, 2-(4-geranyloxybenzoyl)amino-5-diethylaminoethylthio-1,3,4-thiadiazole]: the “PD: change in gastric mucosal potential difference (5 levels)” value with gastric mucosa was 5. Also, the inhibition at 10 µM in series [1] is 100%.

Regarding `CC(C)c1ccc(C(=O)Nc2nnc(SCCN(C(C)C)C(C)C)s2)cc1` [Example 2, 2-(4-isopropylbenzoyl)amino-5-diisopropylaminoethylthio-1,3,4-thiadiazole], the “PD: change in gastric mucosal potential difference (5 levels)” value in the series with gastric mucosa came out at 5. For the same compound, the inhibition at 10 µM in series [1] turned out to be 100%.

Turning to `CCN(CC)CCSc1nnc(NC(=O)c2ccc(C(C)(C)C)cc2)s1` [Example 4, 2-(4-tert-butylbenzoyl)amino-5-diethylaminoethylthio-1,3,4-thiadiazole], the “PD: change in gastric mucosal potential difference (5 levels)” value with gastric mucosa is given as 3. In addition, in series [1], the inhibition at 10 µM was found to be 100%.

As for `CC(C)=CCC/C(C)=C/COc1ccc(C(=O)Nc2nnc(SCCN3CCCCC3)s2)cc1` [Example 12, 2-(4-geranyloxybenzoyl)amino-5-piperidinoethylthio-1,3,4-thiadiazole], the “PD: change in gastric mucosal potential difference (5 levels)” value with gastric mucosa is given as 5. Further, the inhibition at 10 µM in series [1] was determined as 99%.

`CCN(CC)CCSc1nnc(NC(=O)c2ccc(C(C)C)cc2)s1` [Example 1, 2-(4-isopropylbenzoyl)amino-5-diethylaminoethylthio-1,3,4-thiadiazole]: the “PD: change in gastric mucosal potential difference (5 levels)” value in the series on gastric mucosa is reported as 3. Also, the inhibition at 10 µM in series [1] was found to be 101%.
